Measurements from patent US9198916B1, “Compounds and methods for treating tumors” (B&G Partners, LLC, priority 2014, dated 2015).
pIC50: −log10 of the molar value. Read-outs that look alike come from different tables or passages of the source.

Legend:
[1] = molecular target: hERG (human ether-à-go-go-related gene) potassium channel current (Homo sapiens, UniProt Q12809); experiment: cell-based
Procedure: All chemicals used in solution preparation were purchased from Sigma-Aldrich (St. Louis, Mo.) unless otherwise noted and were of ACS reagent grade purity or higher.
The duration of exposure to each test article concentration was 3 minutes.

[2] = Repeated dose intraperitoneal (IP) BID study in mice, plasma concentration by LC-MS/MS and PK fit; parameters: species or system female CD-1 mice; conditions: female, CD-1, mouse, in vivo, fitted, repeated-dose single-compartment first-order absorption model, 10 mg/kg IP BID; for half-life: ip, 10 mg/kg
Procedure: A total of 204.47 mg of the compound of Example 1 was weighed out in a sterile vial on an analytical balance, and a 10.22 ml volume of sterile DMSO containing 5% by volume sterile Tween 80 was added to the vial under a Class II sterile hood and mixed until fully dissolved to produce a 20 mg/ml stock solution of the compound of Example 1. The stock solution was split into 1.2 ml aliquots in sterile glass vials and stored frozen at −80° C.
Sterile 1.0 mg/ml injection solution of the compound of Example 1 was formulated in normal saline containing 4.75% DMSO and 0.25% Tween 80. A visible precipitate formed without the addition of at least 0.1% Tween 80. The injection solution was prepared by thawing one aliquot of sterile 20 mg/ml stock solution, and adding 0.526 cc of stock solution to a 10 ml sterile vial of USP 0.9% sodium chloride for injection (Hospira) to yield the desired concentrations of 1.0 mg/ml o the compound of Example 1, 4.75% DMSO, and 0.25% Tween 80. The injection solution was gently mixed until fully dissolved. […] Injection solution was stored at 4° C. for up to five days after preparation, after which it was considered expired and discarded.
A total of 16 female CD-1 mice with an age of approximately 8-10 weeks (25-30 g) were used in this repeated dosing study. Each animal was weighed on the days 1, 4, 8, 11, and 15 during treatment. A 10 mg/kg dose of the compound of Example 1 was provided by IP injection of 10 ml/kg of 1.0 mg/ml injection solution to each animal every 12.0±0.5 hr. The injection solution was removed from the refrigerator and allowed to warm at room temperature for several minutes. The septum of the injection solution was wiped with sterile alcohol, and animals received 10 ml/kg by individual insulin syringes (one syringe per animal per injection), with the injection volume calculated using the most recent weighing for each individual animal. IP injections were staggered between the left and right side of the abdomen from one dosing to the next. […] The injection solution was returned to refrigerated storage after the last animal. […]

Sequence of hERG (human ether-à-go-go-related gene) potassium channel current (Q12809 whole entry): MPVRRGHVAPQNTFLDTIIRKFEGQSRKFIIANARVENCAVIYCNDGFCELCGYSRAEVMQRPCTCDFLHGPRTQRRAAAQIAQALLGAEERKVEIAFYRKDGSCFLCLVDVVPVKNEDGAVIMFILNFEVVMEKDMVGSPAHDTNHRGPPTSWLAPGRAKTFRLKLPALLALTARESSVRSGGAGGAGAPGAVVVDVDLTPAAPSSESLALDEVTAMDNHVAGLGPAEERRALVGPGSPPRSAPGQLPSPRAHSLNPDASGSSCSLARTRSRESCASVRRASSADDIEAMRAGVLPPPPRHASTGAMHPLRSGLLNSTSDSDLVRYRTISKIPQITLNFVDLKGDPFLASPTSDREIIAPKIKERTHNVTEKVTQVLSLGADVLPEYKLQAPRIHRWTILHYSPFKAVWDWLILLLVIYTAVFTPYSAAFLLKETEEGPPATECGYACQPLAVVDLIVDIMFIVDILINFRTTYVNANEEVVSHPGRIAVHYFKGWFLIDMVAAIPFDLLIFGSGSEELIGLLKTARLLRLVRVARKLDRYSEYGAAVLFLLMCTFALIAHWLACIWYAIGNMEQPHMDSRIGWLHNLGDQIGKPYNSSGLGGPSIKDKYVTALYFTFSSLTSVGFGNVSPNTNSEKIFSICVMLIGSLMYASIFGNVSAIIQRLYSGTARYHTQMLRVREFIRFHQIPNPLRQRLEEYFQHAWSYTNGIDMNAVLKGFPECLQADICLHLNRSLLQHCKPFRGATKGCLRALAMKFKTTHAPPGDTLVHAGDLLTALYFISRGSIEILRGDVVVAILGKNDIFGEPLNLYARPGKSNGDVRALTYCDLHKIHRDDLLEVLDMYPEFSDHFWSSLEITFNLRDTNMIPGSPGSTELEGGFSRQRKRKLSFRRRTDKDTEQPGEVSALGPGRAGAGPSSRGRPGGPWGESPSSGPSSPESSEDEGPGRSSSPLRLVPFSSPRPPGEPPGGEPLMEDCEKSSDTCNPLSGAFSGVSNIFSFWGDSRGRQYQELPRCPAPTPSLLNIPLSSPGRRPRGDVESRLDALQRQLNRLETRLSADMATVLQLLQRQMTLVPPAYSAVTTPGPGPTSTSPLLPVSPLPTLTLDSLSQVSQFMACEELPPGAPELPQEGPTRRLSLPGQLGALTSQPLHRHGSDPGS

Structure (SMILES): CSc1ccc2c(c1)N(CCC1CCCCN1)c1ccccc1S2.Cl (stereo not shown) [Example 1, 2-(methylsulfanyl)-10-[2-(piperidin-2-yl)ethyl]-10H-phenothiazine hydrochloride]
- pIC50 [1]: 5.81
- Vd/F ([2]; read-out: apparent volume of distribution (V/F)): 8 L/kg
- half-life ([2]; read-out: absorption half-life (converted)): 0.48 h
- half-life ([2]; read-out: elimination half-life (converted)): 14.7 h
